Test results taken from PubChem BioAssay (NCI).
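48-hour exposure; five concentrations; linearly interpolated endpoints. Here, GI50 denotes the concentration required for 50% inhibition of growth. At the TGI there is no net growth.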

Tests used:
Test in all cases: NCI-60 cell line screen, 48 h
786-0 renal = tested on: 786-0 renal
ACHN renal = tested on: ACHN renal
IGROV1 ovarian = tested on: IGROV1 ovarian
OVCAR-4 ovarian = tested on: OVCAR-4 ovarian
OVCAR-8 ovarian = tested on: OVCAR-8 ovarian
SK-OV-3 ovarian = tested on: SK-OV-3 ovarian
SNB-75 CNS = tested on: SNB-75 CNS
U251 CNS = tested on: U251 CNS
MCF7 breast = tested on: MCF7 breast
MDA-MB-231 breast = tested on: MDA-MB-231 breast

CC(=O)[CH-]C(=O)c1ccccc1.CC(=O)[CH-]C(=O)c1ccccc1.[Eu+3].[OH-].[OH3+]
GI50 (786-0 renal): > 100 µM | TGI (786-0 renal): > 100 µM | GI50 (ACHN renal): > 100 µM | TGI (ACHN renal): > 100 µM | GI50 (IGROV1 ovarian): > 100 µM | TGI (IGROV1 ovarian): > 100 µM | GI50 (OVCAR-4 ovarian): > 100 µM | TGI (OVCAR-4 ovarian): > 100 µM | GI50 (OVCAR-8 ovarian): > 100 µM | TGI (OVCAR-8 ovarian): > 100 µM | GI50 (SK-OV-3 ovarian): > 100 µM | TGI (SK-OV-3 ovarian): > 100 µM | GI50 (SNB-75 CNS): 96.1 µM | TGI (SNB-75 CNS): > 100 µM | GI50 (U251 CNS): > 100 µM | TGI (U251 CNS): > 100 µM

Oc1cc(O)c2c(-c3c(O)c(-c4ccc(O)c(O)c4)[o+]c4cc(O)cc(O)c34)c(O)c(-c3ccc(O)c(O)c3)[o+]c2c1
TGI (786-0 renal): > 100 µM | TGI (ACHN renal): 66.6 µM | TGI (IGROV1 ovarian): > 100 µM | TGI (OVCAR-4 ovarian): > 100 µM | TGI (OVCAR-8 ovarian): > 100 µM | TGI (SK-OV-3 ovarian): > 100 µM | TGI (SNB-75 CNS): 61.8 µM | TGI (U251 CNS): > 100 µM

CCC/C(=N/NC(=O)C(N)=O)C(CC)C(=O)CCC(=O)N(Cc1ccccc1)Cc1ccccc1 (stereo not drawn)
TGI (786-0 renal): > 100 µM | TGI (ACHN renal): > 100 µM | TGI (IGROV1 ovarian): > 100 µM | TGI (OVCAR-8 ovarian): > 100 µM | TGI (SK-OV-3 ovarian): > 100 µM | TGI (SNB-75 CNS): > 100 µM | TGI (U251 CNS): > 100 µM

COc1cc2c3c(n(CCCN)c(=O)c2cc1OC)-c1cc2c(cc1/C3=C\CCN)OCO2
GI50 (786-0 renal): 2.05 µM | TGI (786-0 renal): 9.34 µM | GI50 (ACHN renal): 5.81 µM | TGI (ACHN renal): 45 µM | GI50 (IGROV1 ovarian): 3.74 µM | TGI (IGROV1 ovarian): > 26.8 µM | GI50 (MCF7 breast): 0.692 µM | GI50 (MDA-MB-231 breast): 2.5 µM | TGI (MDA-MB-231 breast): 11.2 µM | GI50 (OVCAR-8 ovarian): 1.99 µM | TGI (OVCAR-8 ovarian): 13.1 µM | GI50 (SK-OV-3 ovarian): 6 µM | TGI (SK-OV-3 ovarian): 44.2 µM | GI50 (SNB-75 CNS): 1.85 µM | TGI (SNB-75 CNS): 8.02 µM | GI50 (U251 CNS): 1.33 µM | TGI (U251 CNS): 11 µM

CCOc1ccccc1NC(=O)CC1SC(=Nc2ccc([N+](=O)[O-])cc2)NC1=O (stereo not drawn)
TGI (786-0 renal): 33.5 µM | TGI (ACHN renal): 46 µM | TGI (IGROV1 ovarian): 61.4 µM | TGI (OVCAR-4 ovarian): 29.8 µM | TGI (OVCAR-8 ovarian): 51.4 µM | TGI (SNB-75 CNS): 74.2 µM | TGI (U251 CNS): 28 µM

Fc1ccc2c(c1)c(-c1nc(-c3c[nH]c4ncccc34)cs1)cn2CCCN1CCCCC1
GI50 (786-0 renal): 1.65 µM | TGI (786-0 renal): 3.1 µM | GI50 (MDA-MB-231 breast): 1.69 µM | TGI (MDA-MB-231 breast): 3.18 µM | GI50 (OVCAR-4 ovarian): 1.83 µM | TGI (OVCAR-4 ovarian): 4.01 µM | GI50 (SK-OV-3 ovarian): 1.81 µM | TGI (SK-OV-3 ovarian): 3.43 µM | GI50 (SNB-75 CNS): 1.34 µM | TGI (SNB-75 CNS): 2.98 µM | GI50 (U251 CNS): 1.82 µM | TGI (U251 CNS): 3.33 µM

N#CC(C(=O)CCC(=O)C(C#N)c1ccccc1)c1ccccc1 (stereo not drawn)
TGI (786-0 renal): > 100 µM | TGI (ACHN renal): > 100 µM | TGI (IGROV1 ovarian): > 100 µM | TGI (OVCAR-4 ovarian): > 100 µM | TGI (OVCAR-8 ovarian): > 100 µM | TGI (SK-OV-3 ovarian): > 100 µM | TGI (SNB-75 CNS): > 100 µM | TGI (U251 CNS): > 100 µM

O=C1C(Cl)=C(Nc2cccc(Cl)c2)C(=O)N1Cc1ccccc1Cl
GI50 (786-0 renal): 1.21 µM | TGI (786-0 renal): 16.3 µM | GI50 (ACHN renal): 4.36 µM | TGI (ACHN renal): 17.1 µM | GI50 (IGROV1 ovarian): 12.3 µM | TGI (IGROV1 ovarian): 73.8 µM | GI50 (MCF7 breast): 5.18 µM | TGI (MCF7 breast): 21.2 µM | GI50 (MDA-MB-231 breast): 2.4 µM | TGI (MDA-MB-231 breast): 15.1 µM | GI50 (OVCAR-4 ovarian): 12.4 µM | TGI (OVCAR-4 ovarian): 42.4 µM | GI50 (OVCAR-8 ovarian): 1.82 µM | TGI (OVCAR-8 ovarian): 17.1 µM | GI50 (SNB-75 CNS): 5.48 µM | TGI (SNB-75 CNS): 30 µM | GI50 (U251 CNS): 2.95 µM | TGI (U251 CNS): 11.3 µM

O=C1NC(=O)C2C(=O)NC(=O)C1C2(c1ccccc1)c1cc[nH]c1 (stereo not drawn)
TGI (786-0 renal): > 100 µM | TGI (ACHN renal): > 100 µM | TGI (IGROV1 ovarian): > 100 µM | TGI (OVCAR-4 ovarian): > 100 µM | TGI (OVCAR-8 ovarian): > 100 µM | TGI (SK-OV-3 ovarian): > 100 µM | TGI (SNB-75 CNS): > 100 µM

Cc1ccc(/C=C2/SC(Nc3nc(-c4csc(NC5=NC(=O)/C(=C\c6ccc(C)cc6)S5)n4)cs3)=NC2=O)cc1
GI50 (786-0 renal): 7.68 µM | TGI (786-0 renal): 25.6 µM | GI50 (IGROV1 ovarian): 24 µM | TGI (IGROV1 ovarian): > 50 µM | GI50 (MCF7 breast): 2.3 µM | TGI (MCF7 breast): > 50 µM | GI50 (MDA-MB-231 breast): 9.76 µM | TGI (MDA-MB-231 breast): 40.6 µM | GI50 (OVCAR-8 ovarian): 6.05 µM | TGI (OVCAR-8 ovarian): 26.6 µM | GI50 (U251 CNS): 3.43 µM | TGI (U251 CNS): > 50 µM

CCC1(c2c(F)c(F)c(N)c(F)c2F)CCC(=O)NC1=O (stereo not drawn)
TGI (786-0 renal): > 100 µM | TGI (ACHN renal): > 100 µM | TGI (IGROV1 ovarian): > 100 µM | TGI (OVCAR-4 ovarian): > 100 µM | TGI (OVCAR-8 ovarian): > 100 µM | TGI (SK-OV-3 ovarian): > 100 µM | TGI (SNB-75 CNS): > 100 µM | TGI (U251 CNS): > 100 µM

CC(=O)[CH-]C(=O)c1ccccc1.CC(=O)[CH-]C(=O)c1ccccc1.CC1(C)C2CCC1(C)C([O-])C2.CC1(C)C2CCC1(C)C([O-])C2.[Ti+4]
GI50 (786-0 renal): 25.9 µM | TGI (786-0 renal): > 100 µM | GI50 (ACHN renal): 54.4 µM | TGI (ACHN renal): > 100 µM | GI50 (IGROV1 ovarian): 25.3 µM | TGI (IGROV1 ovarian): 85.8 µM | GI50 (OVCAR-4 ovarian): 97.3 µM | TGI (OVCAR-4 ovarian): > 100 µM | GI50 (OVCAR-8 ovarian): 44.9 µM | TGI (OVCAR-8 ovarian): > 100 µM | GI50 (SK-OV-3 ovarian): 20.8 µM | TGI (SK-OV-3 ovarian): 74.1 µM | GI50 (U251 CNS): 40.4 µM | TGI (U251 CNS): > 100 µM

O=C1c2cc3c(cc2-c2c1c1ccc(Cl)cc1c(=O)n2CCCNCCO)OCO3
GI50 (786-0 renal): 0.119 µM | TGI (786-0 renal): 0.278 µM | GI50 (ACHN renal): 0.0383 µM | TGI (ACHN renal): 1.44 µM | GI50 (MCF7 breast): 0.0176 µM | TGI (MCF7 breast): 0.179 µM | GI50 (MDA-MB-231 breast): 1.73 µM | TGI (MDA-MB-231 breast): 3.49 µM | GI50 (OVCAR-4 ovarian): 1.48 µM | TGI (OVCAR-4 ovarian): 3.32 µM | GI50 (OVCAR-8 ovarian): 0.476 µM | TGI (OVCAR-8 ovarian): 2.59 µM | GI50 (SK-OV-3 ovarian): 0.212 µM | TGI (SK-OV-3 ovarian): 1.74 µM | GI50 (U251 CNS): 0.0403 µM | TGI (U251 CNS): 1.4 µM

CC1(c2cccc3ccccc23)OC(=O)c2ccccc21 (stereo not drawn)
TGI (786-0 renal): 71.3 µM | TGI (ACHN renal): 70.9 µM | TGI (IGROV1 ovarian): 55.3 µM | TGI (OVCAR-4 ovarian): > 100 µM | TGI (OVCAR-8 ovarian): > 100 µM | TGI (SK-OV-3 ovarian): 75.8 µM | TGI (SNB-75 CNS): 46 µM | TGI (U251 CNS): 45.7 µM

c1ccc2[nH]c(-c3ccc(NN=Nc4ccncc4)cc3)nc2c1
GI50 (786-0 renal): 99.9 µM | TGI (786-0 renal): > 100 µM | GI50 (ACHN renal): 31.2 µM | TGI (ACHN renal): > 100 µM | GI50 (IGROV1 ovarian): > 100 µM | TGI (IGROV1 ovarian): > 100 µM | GI50 (MDA-MB-231 breast): > 100 µM | TGI (MDA-MB-231 breast): > 100 µM | GI50 (OVCAR-4 ovarian): 39.5 µM | TGI (OVCAR-4 ovarian): > 100 µM | GI50 (OVCAR-8 ovarian): 5.57 µM | TGI (OVCAR-8 ovarian): > 100 µM | GI50 (SK-OV-3 ovarian): > 100 µM | TGI (SK-OV-3 ovarian): > 100 µM | GI50 (SNB-75 CNS): > 100 µM | TGI (SNB-75 CNS): > 100 µM | GI50 (U251 CNS): 27.2 µM | TGI (U251 CNS): > 100 µM

COC(=O)C(=O)OC1(C(C)=O)CC2(c3ccccc3)OC1(c1ccccc1)c1ccccc12 (stereo not drawn)
TGI (786-0 renal): 26.9 µM | TGI (IGROV1 ovarian): 41.4 µM | TGI (OVCAR-4 ovarian): 51.1 µM | TGI (OVCAR-8 ovarian): 30.3 µM | TGI (SK-OV-3 ovarian): 95.5 µM | TGI (SNB-75 CNS): 61.5 µM | TGI (U251 CNS): 30.5 µM

Oc1ccccc1C=NCc1ccco1
TGI (786-0 renal): > 100 µM | TGI (ACHN renal): > 100 µM | TGI (IGROV1 ovarian): > 100 µM | TGI (OVCAR-4 ovarian): > 100 µM | TGI (OVCAR-8 ovarian): > 100 µM | TGI (SK-OV-3 ovarian): > 100 µM | TGI (SNB-75 CNS): > 100 µM | TGI (U251 CNS): > 100 µM

BrC1=CC=C2NC=CC3=CC=NC1C32 (stereo not drawn)
TGI (786-0 renal): > 100 µM | TGI (ACHN renal): > 93.8 µM | TGI (IGROV1 ovarian): > 100 µM | TGI (OVCAR-4 ovarian): 97.3 µM | TGI (OVCAR-8 ovarian): > 94 µM | TGI (SK-OV-3 ovarian): > 100 µM | TGI (SNB-75 CNS): 98.9 µM | TGI (U251 CNS): > 100 µM

N/C(=C\c1ccc(OCc2ccccc2)c(OCc2ccccc2)c1[N+](=O)[O-])C(=O)O
TGI (786-0 renal): > 100 µM | TGI (ACHN renal): > 100 µM | TGI (IGROV1 ovarian): > 100 µM | TGI (OVCAR-8 ovarian): > 100 µM | TGI (SK-OV-3 ovarian): > 100 µM | TGI (SNB-75 CNS): > 100 µM | TGI (U251 CNS): > 100 µM

N#CC(C(=O)/C(=N/N)C(C#N)c1ccccc1)c1ccccc1 (stereo not drawn)
TGI (786-0 renal): > 100 µM | TGI (ACHN renal): > 100 µM | TGI (IGROV1 ovarian): > 100 µM | TGI (OVCAR-4 ovarian): > 100 µM | TGI (OVCAR-8 ovarian): > 100 µM | TGI (SK-OV-3 ovarian): > 100 µM | TGI (U251 CNS): > 100 µM
